# From patent US11274095B2, “Modulators of methyl modifying enzymes, compositions and uses thereof” (Constellation Pharmaceuticals, Inc., priority 2018, dated 2022)
# How the values were obtained:
# [1] = Cellular permeability in MDCK assay; type: in vitro ADME; conditions: dog, pH 7.4, MDCK II, with P-gp inhibitor GF120918 10 μM; for efflux ratio at 2.5 h, 2 μM: Papp(BA)/Papp(AB)
# Experimental: Cell culture: MDCK II cells (obtained from Piet Borst at the Netherlands Cancer Institute) were seeded onto […] (PET) in 96-well BD insert systems at 2.5×10^5 cells/mL until to 4-7 days for confluent cell monolayer formation.
# Experimental procedure: Test and reference compounds (nadolol, metoprolol and digoxin) were diluted with transport buffer (HBSS with 10mM Hepes, pH7.4) from stock solution to a concentration of 2 μM (<1% DMSO) and applied to the apical (A) or basolateral (B) side of the cell monolayer. Permeation of the test compounds from A to B direction or B to A direction was determined in duplicate with P-gp inhibitor (GF120918, 10 μM). Digoxin was tested at 10 μM from A to B direction or B to A direction with/without P-gp inhibitor (GF120918, 10 μM) as well, while nadolol and metoprolol were tested at 2 μM in A to B direction without P-gp inhibitor (GF120918, 10 μM) in duplicate. The plate was incubated for 2.5 hours in CO2 incubator at 37±1° C., with 5% CO2 at saturated humidity without shaking. In addition, the efflux ratio of each compound was also determined. Test and reference compounds were quantified by LC/MS/MS analysis based on the peak area ratio of analyte/IS. After transport assay, Lucifer yellow rejection assay are applied to determine the cell monolayer integrity. Buffers are removed from both apical and basolateral chambers, followed by the addition of 75 μL of 100 μM lucifer yellow in transport buffer and 250 μL transport buffer in apical and basolateral chambers, respectively. The plate is incubated for 30 minutes at 37° C. with 5% CO2 and 95% relative humidity without shaking. After 30 minutes incubation, 20 μL of lucifer yellow samples are taken from the apical sides, followed by the addition of 60 μL of Transport Buffer. And then 80 μL of lucifer yellow samples are taken from the basolateral sides. The relative fluorescence unit (RFU) of lucifer yellow is measured at 425/528 nm (excitation/emission) with a Molecular Device M2e plate reader.
# Data analysis: The apparent permeability coefficient Papp (cm/s) was calculated using the equation: Papp=(dCr/dt)×Vr/(A×C0) Where dCr/dt is the cumulative concentration of compound in the receiver chamber as a function of time (μM/s); Vr is the solution volume in the receiver chamber (0.075 mL on the apical side, 0.25 mL on the basolateral side); A is the surface area for the transport, i.e. 0.0804 cm2 for the area of the monolayer; C0 is the initial concentration in the donor chamber (μM).
# The efflux ratio was calculated using the equation: Efflux Ratio=Papp(BA)/Papp(AB) Percent recovery was calculated using the equation: % Recovery=100×[(Vr×Cr)+(Vd×Cd)]/(Vd×C0) Where Vd is the volume in the donor chambers (0.075 mL on the apical side, 0.25 mL on the basolateral side); Cd and Cr are the final concentrations of transport compound in donor and receiver chambers, respectively.
# Percent of lucifer yellow in basolateral well is calculated using the equation:
# [formula] where RFUApical and RFUBasolateral are the relative fluorescence unit values of lucifer yellow in the apical and basolateral wells, respectively; VApical and VBasolateral are the volume of apical and basolateral wells (0.075 mL and 0.25 mL), respectively. Percent lucifer yellow should be less than 2.
# PRC2 containing wt EZH2 = PRC2 containing wt EZH2 (Homo sapiens (Human), UniProt Q15910); test: EZH2 biochemical assay (IC50), 3H-SAM incorporation into biotinylated H3 peptide; conditions: 30 pM PRC2 with wt EZH2, 3-5 h pre-incubation
# Chain of PRC2 containing wt EZH2 (Q15910 whole entry): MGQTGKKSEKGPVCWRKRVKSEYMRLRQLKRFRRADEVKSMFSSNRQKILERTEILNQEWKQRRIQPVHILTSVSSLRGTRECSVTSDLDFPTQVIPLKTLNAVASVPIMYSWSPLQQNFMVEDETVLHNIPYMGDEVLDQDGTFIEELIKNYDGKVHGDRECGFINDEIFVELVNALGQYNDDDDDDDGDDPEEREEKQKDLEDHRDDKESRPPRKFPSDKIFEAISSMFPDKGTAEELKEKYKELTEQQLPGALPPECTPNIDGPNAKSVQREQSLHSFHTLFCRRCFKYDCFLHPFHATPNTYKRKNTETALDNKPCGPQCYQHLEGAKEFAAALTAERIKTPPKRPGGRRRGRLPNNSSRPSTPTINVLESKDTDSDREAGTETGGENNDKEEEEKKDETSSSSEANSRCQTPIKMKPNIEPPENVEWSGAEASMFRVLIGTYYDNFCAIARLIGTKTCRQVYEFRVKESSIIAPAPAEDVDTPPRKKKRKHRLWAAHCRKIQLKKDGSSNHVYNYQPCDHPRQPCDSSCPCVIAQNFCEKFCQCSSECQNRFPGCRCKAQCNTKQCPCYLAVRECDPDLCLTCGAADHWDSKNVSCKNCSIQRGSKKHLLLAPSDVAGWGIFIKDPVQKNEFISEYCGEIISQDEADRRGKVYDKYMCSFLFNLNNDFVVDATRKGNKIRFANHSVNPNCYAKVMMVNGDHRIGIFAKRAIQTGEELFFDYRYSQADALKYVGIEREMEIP
# Chain of PRC2 containing wt EZH2 (O75530 whole entry partner): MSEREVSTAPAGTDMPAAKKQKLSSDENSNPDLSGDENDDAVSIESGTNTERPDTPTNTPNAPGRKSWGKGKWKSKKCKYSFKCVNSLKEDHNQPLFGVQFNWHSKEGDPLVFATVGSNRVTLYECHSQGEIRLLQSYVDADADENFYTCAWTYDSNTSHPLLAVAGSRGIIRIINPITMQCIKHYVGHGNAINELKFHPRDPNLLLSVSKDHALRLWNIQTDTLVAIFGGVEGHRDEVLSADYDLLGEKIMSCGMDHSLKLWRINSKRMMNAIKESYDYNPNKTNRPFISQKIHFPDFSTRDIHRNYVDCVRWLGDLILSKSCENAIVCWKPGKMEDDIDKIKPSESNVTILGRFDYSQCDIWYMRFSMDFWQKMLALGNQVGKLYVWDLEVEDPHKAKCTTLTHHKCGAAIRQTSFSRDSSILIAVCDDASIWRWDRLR
# Chain of PRC2 containing wt EZH2 (Q15022 whole entry partner): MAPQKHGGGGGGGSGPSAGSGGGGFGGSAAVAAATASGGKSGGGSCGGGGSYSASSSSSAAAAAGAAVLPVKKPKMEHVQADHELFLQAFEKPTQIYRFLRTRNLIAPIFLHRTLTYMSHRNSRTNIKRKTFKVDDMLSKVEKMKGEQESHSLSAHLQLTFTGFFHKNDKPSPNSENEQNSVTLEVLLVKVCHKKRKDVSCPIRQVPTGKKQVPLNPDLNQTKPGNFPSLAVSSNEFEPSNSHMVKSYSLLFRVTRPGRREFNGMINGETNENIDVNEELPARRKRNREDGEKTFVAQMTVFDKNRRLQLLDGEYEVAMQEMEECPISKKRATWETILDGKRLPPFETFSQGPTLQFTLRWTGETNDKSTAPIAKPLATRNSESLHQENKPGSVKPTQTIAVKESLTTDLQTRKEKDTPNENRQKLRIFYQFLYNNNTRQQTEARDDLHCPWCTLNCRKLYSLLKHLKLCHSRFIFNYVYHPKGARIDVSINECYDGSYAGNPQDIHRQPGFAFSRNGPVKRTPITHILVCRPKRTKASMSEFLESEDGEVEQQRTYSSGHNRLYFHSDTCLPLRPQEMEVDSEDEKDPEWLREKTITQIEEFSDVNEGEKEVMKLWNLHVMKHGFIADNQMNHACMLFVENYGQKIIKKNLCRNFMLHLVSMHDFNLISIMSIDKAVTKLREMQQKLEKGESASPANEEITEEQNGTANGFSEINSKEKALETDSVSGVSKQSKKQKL
# Chain of PRC2 containing wt EZH2 (Q09028 whole entry partner): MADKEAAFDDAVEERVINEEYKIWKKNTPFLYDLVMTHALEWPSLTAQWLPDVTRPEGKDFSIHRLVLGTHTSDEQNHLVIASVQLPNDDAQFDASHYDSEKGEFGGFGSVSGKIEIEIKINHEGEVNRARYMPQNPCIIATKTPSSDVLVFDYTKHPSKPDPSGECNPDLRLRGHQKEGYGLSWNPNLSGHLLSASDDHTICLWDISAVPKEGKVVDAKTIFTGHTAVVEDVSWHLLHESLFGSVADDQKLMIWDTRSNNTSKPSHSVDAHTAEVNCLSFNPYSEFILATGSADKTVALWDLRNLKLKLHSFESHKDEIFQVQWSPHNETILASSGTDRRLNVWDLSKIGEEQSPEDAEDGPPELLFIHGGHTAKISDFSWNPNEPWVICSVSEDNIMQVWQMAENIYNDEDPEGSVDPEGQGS
# Chain of PRC2 containing wt EZH2 (Q6ZN18 whole entry partner): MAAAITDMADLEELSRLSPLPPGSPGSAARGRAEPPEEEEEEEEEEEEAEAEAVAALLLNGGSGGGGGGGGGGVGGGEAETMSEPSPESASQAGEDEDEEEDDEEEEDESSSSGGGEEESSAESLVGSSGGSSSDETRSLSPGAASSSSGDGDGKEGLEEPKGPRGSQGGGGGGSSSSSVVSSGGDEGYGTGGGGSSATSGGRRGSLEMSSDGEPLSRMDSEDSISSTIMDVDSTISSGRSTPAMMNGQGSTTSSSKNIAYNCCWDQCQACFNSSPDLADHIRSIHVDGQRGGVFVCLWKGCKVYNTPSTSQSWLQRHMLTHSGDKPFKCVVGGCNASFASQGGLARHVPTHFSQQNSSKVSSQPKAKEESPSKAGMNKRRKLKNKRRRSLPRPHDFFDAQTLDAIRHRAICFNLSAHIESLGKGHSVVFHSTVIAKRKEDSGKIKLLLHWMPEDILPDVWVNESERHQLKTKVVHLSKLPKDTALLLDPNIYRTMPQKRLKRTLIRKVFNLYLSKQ
# Experimental: EZH2 biochemical assay (IC50): Compound potencies were assessed through incorporation of ^3H-SAM into a biotinylated H3 peptide. Specifically, 30 pM PRC2 containing wt EZH2 (pentameric complex prepared in-house) was pre-incubated with 450 nM SAM, 450 nM ^3H-SAM, 2 μM H3K27me3 activating peptide (H2N-RKQLATKAAR(Kme3)SAPATGGVKKP-amide) and compounds (as 10 point duplicate dose response titrations in DMSO, final assay 0.8% DMSO (v/v)) for 3-5 h in 50 mM Tris (pH 8.5), 1 mM DTT, 0.07 mM Brij-35, 0.1% BSA, and 0.8% DMSO in a total volume of 12.5 μl. Reaction was initiated with biotinylated H3 substrate peptide (H2N-RKQLATKAAR(Kmel)SAPATGGVKKP-NTPEGBiot) as a 2 μM stock in 12.5 μl of buffer and allowed to react at room temperature for 18-22 h. Quenching was accomplished by addition of 20 μl of STOP solution (50 mM Tris (pH 8.5), 200 mM EDTA, 2 mM SAH). 35 μl of the quenched solution was transferred to streptavidin coated FlashPlates (PerkinElmer), incubated 1-2 h, washed, and read in a TopCount Reader (PerkinElmer). IC50s were calculated in Genedata Screener using non-linear least square four parameter fits, where the four parameters were IC50, Hill slope, pre-transitional baseline (0% INH), and post-transitional baseline (100% INH).
Structure (SMILES),"Papp at 2.5 h, 2 μM [1]","efflux ratio at 2.5 h, 2 μM [1]",IC50 (PRC2 containing wt EZH2)
"CSc1cc(C)[nH]c(=O)c1CNC(=O)c1cc(Cl)c2c(c1C)OC(C)(C1CCC(N3CC(OC(F)F)C3)CC1)O2 (single isomer, unassigned) [Example 1, 7-chloro-2-(4-(3-(difluoromethoxy)azetidin-1-yl)cyclohexyl)-2,4-dimethyl-N-((6-methyl-4-(methylthio)-2-oxo-1,2-dihydropyridin-3-yl)methyl)benzo[d][1,3]dioxole-5-carboxamide]",5.6 ×10⁻⁶ cm/s,0.79,0.091 nM
"Cc1cc(Cl)c(CNC(=O)c2cc(Cl)c3c(c2C)OC(C)(C2CCC(N4CC(OC5CC5)C4)CC2)O3)c(=O)[nH]1 (single isomer, unassigned) [Example 8, 7-chloro-N-((4-chloro-6-methyl-2-oxo-1,2-dihydropyridin-3-yl)methyl)-2-(4-(3-cyclopropoxyazetidin-1-yl)cyclohexyl)-2,4-dimethylbenzo[d][1,3]dioxole-5-carboxamide]",6.1 ×10⁻⁶ cm/s,0.9,0.039 nM
"CSc1cc(C)[nH]c(=O)c1CNC(=O)c1cc(Cl)c2c(c1C)OC(C)(C1CCC(N3CC(OC4CC4)C3)CC1)O2 (single isomer, unassigned) [Example 9]",3.8 ×10⁻⁶ cm/s,1.4,0.054 nM
"CSc1nc(C)[nH]c(=O)c1CNC(=O)c1cc(Cl)c2c(c1C)OC(C)(C1CCC(N3CC(OC(F)F)C3)CC1)O2 (single isomer, unassigned) [Example 10]",6.5 ×10⁻⁶ cm/s,0.69,0.202 nM
"CSc1cc(C)[nH]c(=O)c1CNC(=O)c1cc(Cl)c2c(c1C)OC(C)(C1CCC(N3CC(F)C3)CC1)O2 (single isomer, unassigned) [Example 12]",6.3 ×10⁻⁶ cm/s,1.2,0.092 nM
"Cc1cc(Cl)c(CNC(=O)c2cc(Cl)c3c(c2C)OC(C)(C2CCC(N4CC(OC(F)F)C4)CC2)O3)c(=O)[nH]1 (single isomer, unassigned) [Example 13]",8.9 ×10⁻⁶ cm/s,0.64,0.084 nM
"COC1CN(C2CCC(C3(C)Oc4c(Cl)cc(C(=O)NCc5c(SC)cc(C)[nH]c5=O)c(C)c4O3)CC2)C1 (single isomer, unassigned) [Example 17, 7-chloro-2-(4-(3-methoxyazetidin-1-yl)cyclohexyl)-2,4-dimethyl-N-((6-methyl-4-(methylthio)-2-oxo-1,2-dihydropyridin-3-yl)methyl)benzo[d][1,3]dioxole-5-carboxamide]",2.5 ×10⁻⁶ cm/s,1.8,0.043 nM
